From patent US11932600B2, “Biaryl derivative” (DAIICHI SANKYO COMPANY, LIMITED, priority 2018, dated 2024)

What was measured:
human TNAP = biological target: T1, human TNAP (Homo sapiens, UniProt P05186); test: Inhibitory test of TNAP activity (pNPP substrate, p-nitrophenol production); format: biochemical; details: human TNAP from culture supernatant of transfected COS1 cells, 60 minutes at room temperature, ABS 405 nm
T1 construct: host or cells: COS1 cells, concentrated and dialyzed culture supernatant
T1 sequence (P05186 18-502 limits assumed): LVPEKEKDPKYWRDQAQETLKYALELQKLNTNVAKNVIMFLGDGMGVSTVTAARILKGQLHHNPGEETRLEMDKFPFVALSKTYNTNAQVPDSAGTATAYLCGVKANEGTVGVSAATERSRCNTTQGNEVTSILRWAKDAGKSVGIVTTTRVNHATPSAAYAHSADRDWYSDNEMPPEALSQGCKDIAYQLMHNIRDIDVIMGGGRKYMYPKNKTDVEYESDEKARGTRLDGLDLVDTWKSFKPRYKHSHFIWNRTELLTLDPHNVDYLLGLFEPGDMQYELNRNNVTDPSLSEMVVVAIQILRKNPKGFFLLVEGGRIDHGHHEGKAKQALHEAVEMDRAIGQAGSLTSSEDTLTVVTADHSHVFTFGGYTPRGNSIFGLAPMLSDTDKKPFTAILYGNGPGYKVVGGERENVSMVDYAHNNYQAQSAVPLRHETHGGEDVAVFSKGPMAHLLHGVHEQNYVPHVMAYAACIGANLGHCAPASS
Experimental: <Test Examples> (Test Example 1) Inhibitory Test of TNAP Activity
COS1 cells (DS Pharma Biomedical Co., Ltd.) were transfected with human TNAP (OriGene Technologies, Inc.) using Lipofectamine LTX & Plus reagent (Invitrogen Corp.). On the next day, the medium was replaced with a fresh medium, and the cells were cultured in an incubator for 3 days. After 3 days, the culture supernatant was collected and concentrated by centrifugation at 5000 G for 30 minutes using Amicon 14, 10^4 cut (Merck Millipore). The concentrated culture supernatant was dialyzed against 5 L of 50 mM Tris/200 mM NaCl/1 mM MgCl2/20 μM ZnCl2 twice and used as an enzyme source (enzyme solution). The substrate pNPP (ProteoChem Inc.) was adjusted to 3.1 mM with Milli-Q water, and a solution of each test compound dissolved in dimethyl sulfoxide (DMSO; Wako Pure Chemical Industries, Ltd.) by 6 serial dilutions at a 5-fold common ratio from 100 μM or DMSO was added thereto at a final concentration of 1% by volume. The enzyme solution adjusted to 2 μg/mL with an assay buffer (200 mM Tris/2 mM MgCl2/0.04 mM ZnCl2/0.01% Tween 20) was added in the same amount of the substrate solution and incubated at room temperature for 60 minutes. Then, the absorbance (ABS: 405 nm) was measured using a microplate reader (model plus 384, Molecular Devices, LLC), and the concentration of produced p-nitrophenol was calculated.

[1] = system: plasma ALP (80-90% containing TNAP); test: Inhibitory test of plasma TNAP activity in B6 mouse; format: in vivo; details: 0.3 mg/kg orally in 0.5% methylcellulose, average inhibition from 0 hour to 6 hours after administration, activity before administration = 100%
Experimental: (Test Example 3) Inhibitory Test of Plasma TNAP Activity in B6 Mouse (Charles River Laboratories Japan, Inc.)
After blood sampling from the tail vein using a heparin-treated hematocrit capillary tube (EM Meister Hematocrit Capillary Tube, AS ONE Corp.) (as the sample before compound administration), each test compound suspended in a 0.5% methylcellulose solution (powder purchased from Wako Pure Chemical Industries, Ltd. was adjusted to 0.5% with Otsuka distilled water) was administered orally to the mouse (0.3 mg/kg). 1, 2, 4, 6, and 24 hours after the administration, blood was collected from the tail vein using a heparin-treated hematocrit capillary tube to obtain a plasma sample. The plasma sample was added to an assay buffer (1 M Tris, 1 M MgCl2, 20 mM ZnCl2, and water, pH 7.5), and the mixture was left standing for 5 minutes. Then, the absorbance at 405 nm was measured and used as a blank. The substrate pNPP was added to the plasma sample and incubated at room temperature for 180 minutes. Then, the absorbance (ABS: 405 nm) was measured using a microplate reader (model plus 384, Molecular Devices, LLC), and the concentration of produced p-nitrophenol was calculated. The blank was subtracted from all measurement values to calculate TNAP activity at each time point with the TNAP activity of the sample before compound administration defined as 100%.
It was calculated according to the following expression: 100−((plasma ALP activity at 0 hr+plasma ALP activity at 1 hr)*1/2+(plasma ALP activity at 1 hr+plasma ALP activity at 2 hr)*1/2+(plasma ALP activity at 2 hr+plasma ALP activity at 4 hr)*2/2+(plasma ALP activity at 4 hr+plasma ALP activity at 6 hr)*2/2)/6.

Compound | IC50 (human TNAP) [pM] | Plasma ALP Inhibition (6 h ave. inhibition %) [1] [%]
CCc1cncc(S(=O)(=O)Nc2c(F)cc(Cl)cc2-c2ccc(OC(C)(C)C(=O)O)cc2)c1 [Example 7, 2-({5′-Chloro-2′-[(5-ethylpyridine-3-sulfonyl)amino]-3′-fluoro[1,1′-biphenyl]-4-yl}oxy)-2-methylpropanoic acid] | 150 | 69.0
CCc1cncc(S(=O)(=O)Nc2c(F)cc(Cl)cc2-c2ccc(CCC(=O)O)cc2)c1 [Example 29, 3-{5′-Chloro-2′-[(5-ethylpyridine-3-sulfonyl)amino]-3′-fluoro[1,1′-biphenyl]-4-yl}propanoic acid] | 180 | 70.9
Cc1cncc(S(=O)(=O)Nc2c(F)cc(Cl)cc2-c2ccc(OC(C)(C)C(=O)O)cc2)c1C [Example 8, 2-({5′-Chloro-2′-[(4,5-dimethylpyridine-3-sulfonyl)amino]-3′-fluoro[1,1′-biphenyl]-4-yl}oxy)-2-methylpropanoic acid] | 150 | 76.2

These reach a lower IC50 (human TNAP). Values come first.

IC50 (human TNAP) [pM] | Compound | Plasma ALP Inhibition (6 h ave. inhibition %) [1] [%]
140 | Cc1cncc(S(=O)(=O)Nc2c(F)cc(Cl)cc2-c2ccc(CC(=O)O)cc2)c1 [Example 11, {5′-Chloro-3′-fluoro-2′-[(5-methylpyridine-3-sulfonyl)amino][1,1′-biphenyl]-4-yl}acetic acid] | 79.0
100 | Cc1cncc(S(=O)(=O)Nc2c(F)cc(Cl)cc2-c2ccc(CC(=O)O)cc2)c1C [Example 12, {5′-Chloro-2′-[(4,5-dimethylpyridine-3-sulfonyl)amino]-3′-fluoro[1,1′-biphenyl]-4-yl}acetic acid] | 82.2
